#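 Dose response: 5 concentrations. Exposure: 48 h. Format: 96-well plates. Endpoint: linear interpolation; highest concentration if not reached. Definition used: TGI = concentration required for complete inhibition of growth.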
# Tests used:
# Experiment in all cases: DTP human tumour cell line panel, 48 h
# [1] = tested on: NCI/ADR-RES ovarian
# [2] = tested on: UACC-62 melanoma
# [3] = tested on: MDA-MB-231 breast
# [4] = tested on: HCT-15 colon
# [5] = tested on: HL-60(TB) leukemia
# [6] = tested on: OVCAR-8 ovarian
# [7] = tested on: SN12C renal
# [8] = tested on: HOP-92 NSCLC
# [9] = tested on: NCI-H522 lung
# [10] = tested on: SK-OV-3 ovarian
# [11] = tested on: OVCAR-4 ovarian
# [12] = tested on: MCF7 breast
compound,measurement,setting,value
Cc1cc2c(cc1-c1cc3c(cc1C)C(C(C)C)=C(O)C(=O)/C3=C\Nc1c3ccccc3nc3ccccc13)/C(=C/Nc1c3ccccc3nc3ccccc13)C(=O)C(O)=C2C(C)C,TGI,[1],12.9 µM
same,TGI,[2],14.6 µM
same,TGI,[3],19 µM
same,TGI,[4],14.9 µM
same,TGI,[5],11.2 µM
same,TGI,[6],12.8 µM
same,TGI,[7],22 µM
same,TGI,[8],21.5 µM
same,TGI,[9],2.97 µM
same,TGI,[10],15.9 µM
same,TGI,[11],12.8 µM
same,TGI,[12],11 µM

# From PubChem BioAssay (NCI)
